Source: ChEMBL document CHEMBL1201862, “PubChem BioAssay data set” (2004)
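Assay format: 96-well plates, 48-hour exposure. At the GI50, growth is halved.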 Active and inactive are the calls of the source. No stated cut-off is given here; in the data, active = GI50 up to about 1.1 µM and inactive = higher.

Assays:
Assay in all cases: inhibition of tumour cell growth, NCI panel, 48 h
[1] = tested on: 786-0
[2] = tested on: A498
[3] = tested on: A549
[4] = tested on: ACHN
[5] = tested on: BT-549
[6] = tested on: CAKI-1
[7] = tested on: CCRF-CEM
[8] = tested on: COLO 205
[9] = tested on: DU-145
[10] = tested on: EKVX
[11] = tested on: HCT-15
[12] = tested on: HL-60
[13] = tested on: HOP-62
[14] = tested on: HOP-92
[15] = tested on: HT-29
[16] = tested on: Hs-578T
[17] = tested on: IGROV-1
[18] = tested on: K562
[19] = tested on: KM12
[20] = tested on: LOX IMVI
[21] = tested on: M14
[22] = tested on: MDA-MB-231
[23] = tested on: MDA-MB-435
[24] = tested on: MDA-N
[25] = tested on: MOLT-4
[26] = tested on: Malme-3M
[27] = tested on: NCI-H460
[28] = tested on: NCI-H522
[29] = tested on: NCI/ADR-RES
[30] = tested on: OVCAR-3
[31] = tested on: OVCAR-4
[32] = tested on: OVCAR-8
[33] = tested on: PC-3
[34] = tested on: RPMI-8226
[35] = tested on: SF-268
[36] = tested on: SF-295
[37] = tested on: SF-539
[38] = tested on: SK-MEL-28
[39] = tested on: SK-MEL-2
[40] = tested on: SK-MEL-5
[41] = tested on: SK-OV-3
[42] = tested on: SN12C
[43] = tested on: SNB-19
[44] = tested on: SNB-75
[45] = tested on: SR
[46] = tested on: SW-620
[47] = tested on: T47D
[48] = tested on: TK-10
[49] = tested on: U-251
[50] = tested on: UACC-257
[51] = tested on: UACC-62
[52] = tested on: UO-31
[53] = tested on: HCT-116
[54] = tested on: MCF7
[55] = tested on: NCI-H226
[56] = tested on: NCI-H23
[57] = tested on: OVCAR-5
[58] = tested on: RXF 393

In the case of `Cc1ccc(Nc2nc(=O)c3c([nH]c4ccccc43)s2)cc1`, the GI50 [1] is reported as 14.5 µM (inactive), the GI50 [2] is reported as 18.1 µM (inactive) and the GI50 [3] is reported as 12.6 µM (inactive). For the same compound, the GI50 [4] was 16.2 µM (inactive), the GI50 [5] was 18.2 µM (inactive) and the GI50 [6] was 8.55 µM (inactive). For the same compound, the GI50 [7] was 20.1 µM (inactive), the GI50 [8] was 10.9 µM (inactive) and the GI50 [9] was 18.6 µM (inactive). The GI50 [10] was 27.8 µM (inactive), the GI50 [11] was 7.55 µM and the GI50 [12] was 14.8 µM (inactive). The GI50 [13] was 10.2 µM (inactive), the GI50 [14] was 10.1 µM (inactive) and the GI50 [15] was 10.8 µM (inactive). For the same compound, the GI50 [16] was 27.2 µM (inactive), the GI50 [17] was 13.7 µM (inactive) and the GI50 [18] was 6.27 µM (inactive). The GI50 [19] was 3.43 µM (inactive), the GI50 [20] was 13 µM (inactive) and the GI50 [21] was 6.59 µM (inactive). The GI50 [22] was 17.1 µM (inactive), the GI50 [23] was 2.48 µM (inactive) and the GI50 [24] was 2.34 µM (inactive). For the same compound, the GI50 [25] was 21.7 µM (inactive), the GI50 [26] was 10.6 µM (inactive) and the GI50 [27] was 10.1 µM (inactive). The GI50 [28] was 14.6 µM (inactive), the GI50 [29] was 14.2 µM (inactive) and the GI50 [30] was 14 µM (inactive). The GI50 [31] was 18.1 µM (inactive), the GI50 [32] was 15.4 µM (inactive) and the GI50 [33] was 15.1 µM (inactive). For the same compound, the GI50 [34] was 4.21 µM (inactive), the GI50 [35] was 16.7 µM (inactive) and the GI50 [36] was 11.8 µM (inactive). For the same compound, the GI50 [37] was 15.7 µM (inactive), the GI50 [38] was 21.2 µM (inactive) and the GI50 [39] was 14.2 µM (inactive). For the same compound, the GI50 [40] was 8.32 µM (inactive), the GI50 [41] was 28.1 µM (inactive) and the GI50 [42] was 15 µM (inactive). The GI50 [43] was 26.4 µM (inactive), the GI50 [44] was 16.1 µM (inactive) and the GI50 [45] was 4.68 µM (inactive). The GI50 [46] was 10.8 µM (inactive), the GI50 [47] was 15.4 µM (inactive) and the GI50 [48] was 11.3 µM (inactive). The GI50 [49] was 12.8 µM (inactive), the GI50 [50] was 17.1 µM (inactive) and the GI50 [51] was 3.84 µM (inactive). For the same compound, the GI50 [52] was 2.9 µM (inactive).
In the case of `COc1ccc(N[S+]([O-])CCCc2ccccc2)cc1` (stereo not given), the GI50 [1] is reported as > 100 µM (inactive), the GI50 [3] is reported as 65 µM (inactive) and the GI50 [4] is reported as > 100 µM (inactive). The GI50 [5] was 4.16 µM (inactive), the GI50 [7] was > 100 µM (inactive) and the GI50 [8] was > 100 µM (inactive). The GI50 [9] was > 100 µM (inactive), the GI50 [10] was > 100 µM (inactive) and the GI50 [53] was > 100 µM (inactive). The GI50 [11] was 64 µM, the GI50 [12] was 67.3 µM (inactive) and the GI50 [13] was > 100 µM (inactive). For the same compound, the GI50 [15] was > 100 µM (inactive), the GI50 [16] was > 100 µM (inactive) and the GI50 [17] was 72.6 µM (inactive). The GI50 [18] was 75.5 µM (inactive), the GI50 [19] was 34.8 µM (inactive) and the GI50 [20] was > 100 µM (inactive). The GI50 [54] was 81.1 µM (inactive), the GI50 [22] was > 100 µM (inactive) and the GI50 [23] was > 100 µM (inactive). For the same compound, the GI50 [24] was > 100 µM (inactive), the GI50 [25] was > 100 µM (inactive) and the GI50 [26] was > 100 µM (inactive). The GI50 [55] was > 100 µM (inactive), the GI50 [56] was > 100 µM (inactive) and the GI50 [27] was > 100 µM (inactive). The GI50 [28] was 24.1 µM (inactive), the GI50 [29] was 58.1 µM (inactive) and the GI50 [30] was 88.7 µM (inactive). For the same compound, the GI50 [31] was > 100 µM (inactive), the GI50 [57] was > 100 µM (inactive) and the GI50 [32] was > 100 µM (inactive). The GI50 [34] was 70 µM (inactive), the GI50 [35] was > 100 µM (inactive) and the GI50 [36] was > 100 µM (inactive). For the same compound, the GI50 [37] was > 100 µM (inactive), the GI50 [38] was > 100 µM (inactive) and the GI50 [39] was > 100 µM (inactive). The GI50 [40] was 44.8 µM (inactive), the GI50 [42] was > 100 µM (inactive) and the GI50 [43] was > 100 µM (inactive). For the same compound, the GI50 [45] was 88.5 µM (inactive), the GI50 [46] was > 100 µM (inactive) and the GI50 [47] was 14.7 µM (inactive). For the same compound, the GI50 [48] was > 100 µM (inactive), the GI50 [49] was 72.3 µM (inactive) and the GI50 [50] was 65 µM (inactive). The GI50 [51] was 44.9 µM (inactive) and the GI50 [52] was 38.7 µM (inactive).
`CCOC(=O)c1c(NS(=O)(=O)c2ccccc2)sc2c1CCCC2` was tested, and the GI50 [1] was 80.5 µM (inactive), the GI50 [2] was 98.2 µM (inactive) and the GI50 [3] was 47.9 µM (inactive). The GI50 [4] was 64.6 µM (inactive), the GI50 [5] was > 100 µM (inactive) and the GI50 [6] was > 100 µM (inactive). For the same compound, the GI50 [7] was 25.5 µM (inactive), the GI50 [8] was 44.4 µM (inactive) and the GI50 [9] was 89.5 µM (inactive). For the same compound, the GI50 [10] was 48.4 µM (inactive), the GI50 [53] was 37.7 µM (inactive) and the GI50 [11] was 33.7 µM. For the same compound, the GI50 [12] was 57.5 µM (inactive), the GI50 [13] was 46.5 µM (inactive) and the GI50 [15] was 39.4 µM (inactive). The GI50 [16] was 82.8 µM (inactive), the GI50 [17] was 54.8 µM (inactive) and the GI50 [18] was 30.8 µM (inactive). The GI50 [19] was 22.1 µM (inactive), the GI50 [21] was 81.3 µM (inactive) and the GI50 [54] was 46.7 µM (inactive). For the same compound, the GI50 [22] was > 100 µM (inactive), the GI50 [24] was > 100 µM (inactive) and the GI50 [25] was 40.6 µM (inactive). The GI50 [55] was > 100 µM (inactive), the GI50 [56] was > 100 µM (inactive) and the GI50 [27] was > 100 µM (inactive). The GI50 [29] was 62.1 µM (inactive), the GI50 [30] was 22.5 µM (inactive) and the GI50 [57] was > 100 µM (inactive). The GI50 [32] was 56.8 µM (inactive), the GI50 [33] was 39.5 µM (inactive) and the GI50 [34] was 26.9 µM (inactive). The GI50 [58] was > 100 µM (inactive), the GI50 [35] was 64.9 µM (inactive) and the GI50 [36] was 43.6 µM (inactive). The GI50 [37] was > 100 µM (inactive), the GI50 [39] was 68.1 µM (inactive) and the GI50 [40] was 74.5 µM (inactive). For the same compound, the GI50 [42] was 66.7 µM (inactive), the GI50 [43] was 93.1 µM (inactive) and the GI50 [44] was > 100 µM (inactive). The GI50 [45] was 59.8 µM (inactive), the GI50 [47] was 47.8 µM (inactive) and the GI50 [48] was 62.8 µM (inactive). The GI50 [50] was 81.7 µM (inactive), the GI50 [51] was 76 µM (inactive) and the GI50 [52] was 70.5 µM (inactive).
